Measurements: PubChem BioAssay AID330 (DTP/NCI, 2004)
Several values for one entry are separate records, joined by “and”; a condition that tells them apart may be missing. Identical values can stand only once. Inconclusive results and toxic doses are left out. Peptide text beside a SMILES is read from it. * marks the point of attachment. Cbz = O=C(OCc1ccccc1)*

Test system: P388 leukemia ip, CD2F1 mice, survival T/C
Test: NCI In Vivo Anticancer Drug Screen. Data for tumor model P388 Leukemia (intraperitoneal) in CD2F1 (CDF1) mice
Details: endpoint: median survival time, higher = longer survival
Summary of the method: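 Mice carrying the transplanted tumor received test compound or vehicle. Survival was recorded in each group, and the value is the treated-group measurement divided by that of the vehicle-treated control group.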

[1] = dose: 50.0 mg/kg/injection, schedule: Q01DX009 (ip), vehicle: saline
[2] = dose: 100.0 mg/kg/injection, schedule: Q01DX009 (ip), vehicle: saline
[3] = dose: 200.0 mg/kg/injection, schedule: Q01DX009 (ip), vehicle: saline
[4] = dose: 50.0 mg/kg/injection, schedule: Q01DX005 (ip), vehicle: saline with Tween-80
[5] = dose: 100.0 mg/kg/injection, schedule: Q01DX005 (ip), vehicle: saline with Tween-80

Compound: C1CC[N-]CC1.C1CC[N-]CC1.C1CC[N-]CC1.[Cl][Rh]([Cl])[Cl]
- T/C (dose: 1.0 mg/kg/injection, schedule: Q03HX024 (ip), vehicle: saline): 100 % of control and 96 % of control
- T/C (dose: 2.0 mg/kg/injection, schedule: Q03HX016 (ip), vehicle: saline): 97 % of control
- T/C (dose: 2.0 mg/kg/injection, schedule: Q03HX024 (ip), vehicle: saline): 96 % of control and 98 % of control
- T/C (dose: 4.0 mg/kg/injection, schedule: Q01DX009 (ip), vehicle: saline): 98 % of control
- T/C (dose: 4.0 mg/kg/injection, schedule: Q03HX016 (ip), vehicle: saline): 96 % of control
- T/C (dose: 4.0 mg/kg/injection, schedule: Q03HX024 (ip), vehicle: saline): 96 % of control
- T/C (dose: 8.0 mg/kg/injection, schedule: Q03HX016 (ip), vehicle: saline): 110 % of control and 96 % of control
- T/C (dose: 8.0 mg/kg/injection, schedule: Q03HX024 (ip), vehicle: saline): 97 % of control
- T/C (dose: 8.0 mg/kg/injection, schedule: Q04DX003 (ip), vehicle: saline): 100 % of control
- T/C (dose: 16.0 mg/kg/injection, schedule: Q01DX001 (ip), vehicle: saline): 110 % of control
- T/C (dose: 16.0 mg/kg/injection, schedule: Q03HX008 (ip), vehicle: saline): 119 % of control
- T/C (dose: 16.0 mg/kg/injection, schedule: Q03HX024 (ip), vehicle: saline): 97 % of control
- T/C (dose: 25.0 mg/kg/injection, schedule: Q01DX009 (ip), vehicle: saline with Tween-80): 154 % of control
- T/C (dose: 32.0 mg/kg/injection, schedule: Q01DX009 (ip), vehicle: saline): 118 % of control
- T/C (dose: 32.0 mg/kg/injection, schedule: Q03HX008 (ip), vehicle: saline): 110 % of control
- T/C (dose: 32.0 mg/kg/injection, schedule: Q03HX016 (ip), vehicle: saline): 96 % of control
- T/C (dose: 32.0 mg/kg/injection, schedule: Q03HX024 (ip), vehicle: saline): 96 % of control and 97 % of control
- T/C (dose: 64.0 mg/kg/injection, schedule: Q01DX001 (ip), vehicle: saline): 110 % of control
- T/C (dose: 64.0 mg/kg/injection, schedule: Q01DX009 (ip), vehicle: saline): 118 % of control
- T/C (dose: 64.0 mg/kg/injection, schedule: Q08DX002 (ip), vehicle: saline): 110 % of control

Compound: O=C(O)c1ccc2c(=O)c(C(=O)O)c[nH]c2c1
- T/C [1]: 100 % of control
- T/C [2]: 96 % of control
- T/C [3]: 103 % of control

Compound: O=C(NC(Cc1ccccc1)C(=O)NC(Cc1ccc(O)cc1)C(=O)O)OCc1ccccc1 (stereo not drawn) (Cbz-Phe-Tyr-OH; configuration not given here)
- T/C (dose: 50.0 mg/kg/injection, schedule: Q01DX005 (ip), vehicle: saline + Tween-80 + alcohol): 97 % of control
- T/C (dose: 100.0 mg/kg/injection, schedule: Q01DX005 (ip), vehicle: saline + Tween-80 + alcohol): 95 % of control
- T/C (dose: 200.0 mg/kg/injection, schedule: Q01DX005 (ip), vehicle: saline + Tween-80 + alcohol): 96 % of control

Compound: N=c1ncn(C2OC(CO)C(O)C2O)c2nc[nH]c12 (stereo unspecified)
- T/C (dose: 6.25 mg/kg/injection, schedule: Q01DX009 (ip), vehicle: Klucel (hydroxypropylcellulose) (HPC)): 113 % of control
- T/C (dose: 12.5 mg/kg/injection, schedule: Q01DX009 (ip), vehicle: Klucel (hydroxypropylcellulose) (HPC)): 108 % of control

Compound: O=c1oc2ccccc2c(O)c1C(c1ccc(Cl)cc1)c1c(O)c2ccccc2oc1=O
- T/C (dose: 15.0 mg/kg/injection, schedule: Q01DX005 (ip), vehicle: saline with Tween-80): 94 % of control
- T/C (dose: 30.0 mg/kg/injection, schedule: Q01DX005 (ip), vehicle: saline with Tween-80): 93 % of control

Compound: Cc1ccc(NC2OC(CO)C(O)C(O)C2O)cc1 (stereo unspecified)
- T/C [1]: 104 % of control
- T/C [2]: 111 % of control
- T/C [3]: 98 % of control

Compound: Cc1ccc2[nH]c(=O)oc(=O)c2c1
- T/C (dose: 25.0 mg/kg/injection, schedule: Q01DX009 (ip), vehicle: saline): 105 % of control
- T/C [1]: 107 % of control
- T/C (dose: 50.0 mg/kg/injection, schedule: Q04DX003 (ip), vehicle: saline with Tween-80): 100 % of control
- T/C [2]: 96 % of control
- T/C (dose: 100.0 mg/kg/injection, schedule: Q04DX003 (ip), vehicle: saline with Tween-80): 108 % of control
- T/C [3]: 110 % of control
- T/C (dose: 200.0 mg/kg/injection, schedule: Q04DX003 (ip), vehicle: saline with Tween-80): 108 % of control

Compound: Cc1ccc(Cl)cc1S
- T/C (dose: 50.0 mg/kg/injection, schedule: Q04DX003 (ip), vehicle: saline): 95 % of control
- T/C (dose: 100.0 mg/kg/injection, schedule: Q04DX003 (ip), vehicle: saline): 95 % of control

Compound: O=C(CCCN1CCC(C(=O)c2ccc(Cl)cc2)CC1)c1ccc(F)cc1
- T/C (dose: 3.0 mg/kg/injection, schedule: Q01DX009 (ip), vehicle: Klucel (hydroxypropylcellulose) (HPC)): 99 % of control
- T/C (dose: 6.0 mg/kg/injection, schedule: Q01DX009 (ip), vehicle: Klucel (hydroxypropylcellulose) (HPC)): 97 % of control
- T/C (dose: 12.0 mg/kg/injection, schedule: Q01DX009 (ip), vehicle: Klucel (hydroxypropylcellulose) (HPC)): 108 % of control

Compound: CCOC(=O)C(C(=O)OCC)c1ccccn1
- T/C (dose: 50.0 mg/kg/injection, schedule: Q01DX009 (ip), vehicle: saline with Tween-80): 98 % of control
- T/C (dose: 100.0 mg/kg/injection, schedule: Q01DX009 (ip), vehicle: saline with Tween-80): 107 % of control
- T/C (dose: 200.0 mg/kg/injection, schedule: Q01DX009 (ip), vehicle: saline with Tween-80): 108 % of control

Compound: O=[N+]([O-])c1ccc(-c2c[s+]cs2)cc1
- T/C (dose: 6.25 mg/kg/injection, schedule: Q01DX009 (ip), vehicle: distilled water + Tween-80): 101 % of control
- T/C (dose: 12.5 mg/kg/injection, schedule: Q01DX009 (ip), vehicle: distilled water + Tween-80): 101 % of control
- T/C (dose: 25.0 mg/kg/injection, schedule: Q01DX009 (ip), vehicle: distilled water + Tween-80): 108 % of control
- T/C (dose: 50.0 mg/kg/injection, schedule: Q01DX009 (ip), vehicle: distilled water + Tween-80): 95 % of control
- T/C (dose: 100.0 mg/kg/injection, schedule: Q01DX009 (ip), vehicle: distilled water + Tween-80): 104 % of control

Compound: CSc1cc(=O)n2c3ccccc3c3ccnc1c32
- T/C (dose: 2.5 mg/kg/injection, schedule: Q01DX009 (ip), vehicle: saline with Tween-80): 100 % of control and 120 % of control
- T/C (dose: 5.0 mg/kg/injection, schedule: Q01DX009 (ip), vehicle: saline with Tween-80): 116 % of control
- T/C (dose: 10.0 mg/kg/injection, schedule: Q01DX009 (ip), vehicle: saline with Tween-80): 156 % of control

Compound: NC(CCC(=O)NC(CS)C(=O)NCC(=O)O)C(=O)O.[CH2-]CCC.[CH2-]CCC.[CH2-]CCC.[CH2-]CCC.[Ti+4] (stereo unspecified)
- T/C [4]: 103 % of control
- T/C [5]: 89 % of control

Compound: NC1CCc2cc(O)c(O)cc2C1 (stereo unspecified)
- T/C (dose: 100.0 mg/kg/injection, schedule: Q04DX002 (ip), vehicle: saline): 108 % of control and 96 % of control
- T/C (dose: 200.0 mg/kg/injection, schedule: Q04DX002 (ip), vehicle: saline): 105 % of control and 109 % of control
- T/C (dose: 400.0 mg/kg/injection, schedule: Q04DX002 (ip), vehicle: saline): 109 % of control

Compound: CCOC(=O)c1sc(=S)n(C(C)C)c1C
- T/C (dose: 12.5 mg/kg/injection, schedule: Q01DX005 (ip), vehicle: saline with Tween-80): 101 % of control
- T/C (dose: 25.0 mg/kg/injection, schedule: Q01DX005 (ip), vehicle: saline with Tween-80): 101 % of control
- T/C [4]: 101 % of control and 102 % of control
- T/C [5]: 100 % of control
- T/C (dose: 200.0 mg/kg/injection, schedule: Q01DX005 (ip), vehicle: saline with Tween-80): 98 % of control

Compound: COC1=CC(=O)C2CC=C(C)C3CC(=O)OC1C23C (stereo unspecified)
- T/C (dose: 100.0 mg/kg/injection, schedule: Q04DX002 (ip), vehicle: Klucel (hydroxypropylcellulose) (HPC)): 100 % of control
- T/C (dose: 200.0 mg/kg/injection, schedule: Q04DX002 (ip), vehicle: Klucel (hydroxypropylcellulose) (HPC)): 95 % of control
- T/C (dose: 400.0 mg/kg/injection, schedule: Q04DX002 (ip), vehicle: Klucel (hydroxypropylcellulose) (HPC)): 98 % of control

Compound: O=C(Nc1ccc(CC2=NCCCN2)cc1)c1ccc(C(=O)Nc2ccc(CC3=NCCCN3)cc2)cc1
- T/C (dose: 0.78 mg/kg/injection, schedule: Q01DX005 (ip), vehicle: saline with Tween-80): 93 % of control
- T/C (dose: 1.56 mg/kg/injection, schedule: Q01DX005 (ip), vehicle: saline with Tween-80): 112 % of control

Compound: CC(C)C1C(=O)N(c2ccccc2)N(C)C1C (stereo unspecified)
- T/C (dose: 100.0 mg/kg/injection, schedule: Q04DX003 (ip), vehicle: Klucel (hydroxypropylcellulose) (HPC)): 100 % of control
- T/C (dose: 200.0 mg/kg/injection, schedule: Q04DX003 (ip), vehicle: Klucel (hydroxypropylcellulose) (HPC)): 104 % of control

Compound: CC(C)Nc1ncnc2[nH]ncc12
- T/C (dose: 16.0 mg/kg/injection, schedule: Q01DX009 (ip), vehicle: Klucel (hydroxypropylcellulose) (HPC)): 101 % of control
- T/C (dose: 32.0 mg/kg/injection, schedule: Q01DX009 (ip), vehicle: Klucel (hydroxypropylcellulose) (HPC)): 97 % of control
- T/C (dose: 64.0 mg/kg/injection, schedule: Q01DX009 (ip), vehicle: Klucel (hydroxypropylcellulose) (HPC)): 87 % of control
